Tests used:
Assay type in all cases: cell-based
[1] = system: starved wound edge NIH-3T3 cells; test: MTOC reorientation in wounded starved monolayers (fixed, stained cells); settings: for effect on MTOC reorientation induced by LPA: pre-treatment with 0.5 μM CD or 50 μM BB; for MTOC reorientation in starved cells without LPA: microinjected protein or expressed DNA, no other treatment
Method: (§1) NIH-3T3 cells were cultured in DMEM with 10% calf serum, serum starved for 2 days and wounded as previous described (9, 21).
(§2) Plasmid DNA was purified using Plasmid Midi Kit (Qiagen, Valencia, Calif.) and was microinjected into nuclei as described (38). Expression was detectable within 1-2 hr. Proteins were microinjected as described (9, 39). DIC mAb 74.1 (from K. Pfister, U. of Virginia), was microinjected at 10 mg/ml and Cdc42, Rac and Rho GTPases were microinjected at 1 mg/ml. For double microinjections, 100 μg/ml DNA (MRCK-WT or MRCK-CPC) was injected into the nucleus with 2 mg/ml fluorescein-ovalbumin. After 30 min, labelled cells were injected with DIC mAb, L61Cdc42 or human IgG as a control.
(§3) Phase contrast and fluorescence images of cells stained for pericentrin or γ-tubulin, β-catenin, DNA, expression tag, MTs. (Tyr tubulin) or injection marker were acquired as described (38, 39). MTOC reorientation was determined as previously described (39). For analysis of nucleus and MTOC position, images were pseudo-colored, aligned with the wound parallel to the X axis and then combined using Metamorph software. The cell perimeter was drawn over the cell-cell contacts (β-catenin, expression tags or injection markers) and the wound edge (Tyr-tubulin or injection markers) and the cell centroid was calculated using Metamorph software. Similarly, the nuclear perimeter was drawn and the centroid of the nucleus calculated. A vector representing the distances from the centroid of the nucleus and the MTOC (γ-tubulin or pericentrin staining and MT focus) to the cell centroid was drawn and resolved into X and Y coordinates (parallel and perpendicular to the leading edge, respectively). To allow comparison between cells, measurements were normalized to cell size. […] At least 30 cells from 3 independent experiments were analysed for each condition and error bars in plots are SEM.

[2] = system: starved wound edge NIH-3T3 cells; test: Determination of nucleus and MTOC position relative to the cell centroid; settings: for effect on rearward nuclear movement induced by LPA / effect on the position of the MTOC: pre-treatment with 0.5 μM CD or 50 μM BB; for effect on rearward nuclear movement induced by LPA / effect on the position of the MTOC / effect on LPA-induced rearward nuclear movement: 2 μM LPA, 2 hr; for rearward nuclear movement in starved cells without LPA: microinjected protein or expressed DNA
Method: as §1, §2, §3

[3] = system: wound edge NIH-3T3 cells; test: Actin distribution (phalloidin staining)
Method: Actin retrograde flow is involved in nuclear movement. A. Region of 3T3-GFPTub cell used for kymograph in B. B. Kymograph showing retrograde movement of MTs and nucleus before and after 2 μM LPA addition. […] The nucleus is the broad dark band at the bottom of the kymograph and begins moving rearward in concert with MTs. C, D. Wound edge starved NIH-3T3 cells were microinjected with R-actin and time lapse images of actin speckles were acquired before (C) or after (D) addition of 2 μM LPA. Kymographs of a region of the lamella are shown (separate cells are shown in C and D). Actin speckles (arrowheads) remain stationary in the absence of LPA (C) but move away from the leading edge upon LPA addition (D). Note that the nucleus remains stationary in the absence of LPA (C) but moves rearward at the same rate as actin speckles after LPA addition (D). E. Starved wounded monolayers of NIH-3T3 cells were either left untreated or treated with 2 μM LPA with or without BB or CD as indicated. After 2 hr, coverslips were fixed, stained and the extent of MTOC reorientation determined. The level of random “reorientation” is ˜33%. F. The average positions of the MTOC and nucleus from the cells treated as in E were determined and plotted. G. Actin distribution (phallodin staining) in wound edge NIH-3T3 cells treated as indicated. Bar, G: 10 μm.
Cdc42 and MRCK activate nuclear movement to reorient the MTOC. A. Starved wound edge NIH-3T3 cells were injected with L61Cdc42, N17Cdc42 or Pak-CRIB domain proteins and then treated with 2 μM LPA for 2 hr. Cells were then fixed, stained and the positions of the nucleus and MTOC were determined. […] After expression (2 hr) cells were treated with 2 μM LPA for 2 hr, fixed, stained and the extent of MTOC reorientation determined. […] After expression (3 hr), cells were fixed, stained and the extent of MTOC reorientation was determined. D, E. Average nucleus and MTOC positions of cells from B and C were determined and plotted. […] Cells were fixed and stained and the percentage of expressing cells remaining at the wound edge determined. […]

[4] = system: pSer19 MLC; test: Phospho-Ser19 MLC quantification; settings: starved wound edge cells, injected, fixed 2.5 hr later
Method: Total cell extracts prepared in SDS sample buffer were analyzed by western blotting as described (38). For quantification of pSer19-MLC immunofluorescence, average cellular fluorescence intensity was determined with Metamorph software after subtracting background fluorescence (determined for an adjacent cell-free area). Data is from at least two independent experiments and error bars in plots are SEM.

[5] = system: starved wound edge NIH-3T3 cells; test: Migration of expressing wound edge cells after serum stimulation; settings: DNA microinjection, serum for 12 h
Method: Cdc42 and MRCK activate nuclear movement to reorient the MTOC. A. Starved wound edge NIH-3T3 cells were injected with L61Cdc42, N17Cdc42 or Pak-CRIB domain proteins and then treated with 2 μM LPA for 2 hr. Cells were then fixed, stained and the positions of the nucleus and MTOC were determined. MTOC reorientation is indicated as YES (>60%); NO (<40%). B. Starved wound edge NIH-3T3 cells were injected with DNA encoding myc-hPAK1 (hPAK1(83-149)), HA-MRCK-TM or Flag-MRCK-CPC. After expression (2 hr) cells were treated with 2 μM LPA for 2 hr, fixed, stained and the extent of MTOC reorientation determined. C. Serum starved wound edge NIH-3T3 cells were injected with DNA encoding […] HA-L61Cdc42, HA-L61Cdc42 plus flag-MRCK-CPC or flag-MRCK-WT (MRCK-WT). After expression (3 hr), cells were fixed, stained and the extent of MTOC reorientation was determined. D, E. Average nucleus and MTOC positions of cells from B and C were determined and plotted. F. Representative images of cells microinjected with the indicated constructs and treated with LPA as indicated before fixing and staining. Arrows indicate cells with expressed protein (green), pericentrin and β-catenin (red) and DNA (blue). G. Actin (phalloidin staining) in a cell injected with MRCK-TM (arrow) and treated with LPA. […] Cells were fixed and stained and the percentage of expressing cells remaining at the wound edge determined. […]

[6] = 100 nM nocodazole with LPA for 2h
[7] = microinjected protein, antibody or expressed DNA construct, 2 μM LPA, 2 hr
[8] = microinjected protein, antibody or expressed DNA construct
[9] = co-expression with HA-L61Cdc42, 3 hr

## Cc1ccc2c(c1)C(=O)C1(O)CCN(c3ccccc3)C1=N2 (stereo not drawn) [BB, blebbistatin, reference compound]
[1]; 2 μM LPA, 2 hr
  effect on MTOC reorientation induced by LPA: blocked
[2]
  effect on rearward nuclear movement induced by LPA: blocked
  effect on the position of the MTOC: without affecting
[3]; CD or BB with 2 μM LPA
  effect on LPA-induced changes in the actin cytoskeleton: blocked

## C=C1[C@@H](C)[C@H]2[C@H](Cc3ccccc3)NC(=O)[C@]23[C@H](OC(C)=O)/C=C/[C@@](C)(O)C(=O)[C@@H](C)C/C=C/[C@H]3[C@@H]1O [CD, cytochalasin D, reference compound]
[1]; lower concentrations of CD (below 0.5 μM)
  effect on MTOC reorientation: had no effect
[1]; 2 μM LPA, 2 hr
  effect on MTOC reorientation induced by LPA: blocked
[2]
  effect on rearward nuclear movement induced by LPA: blocked
  effect on the position of the MTOC: without affecting
[3]; CD or BB with 2 μM LPA
  effect on LPA-induced changes in the actin cytoskeleton: blocked

## COC(=O)Nc1nc2ccc(C(=O)c3cccs3)cc2[nH]1 [nocodazole, reference compound]
[1]; [6]
  effect on LPA-induced MTOC reorientation: blocked MTOC reorientation
[2]; 100 nM nocodazole washed out, medium with LPA for another 2h
  MTOC position upon nocodazole wash out: the MTOC returned to the cell center
[2]; [6]
  effect on MTOC centration: interfering with MTOC centration
  effect on nuclear movement: not with nuclear movement

## L61Cdc42: constitutively active L61Cdc42 protein (microinjected) or HA-L61Cdc42 DNA
[1]
  MTOC reorientation in starved cells without LPA: resulted in MTOC reorientation
[2]; no other treatment
  rearward nuclear movement in starved cells without LPA: induced rearward nuclear movement
[4]
  pSer19 MLC immunofluorescence compared to noninjected cells: substantially increased

## MRCK-TM: dominant negative full length MRCKa with K106A, H1579A and H1582A mutations
[1]; [7]
  effect on LPA-induced MTOC reorientation: blocked MTOC reorientation
[2]; [8]
  effect on LPA-induced rearward nuclear movement: blocking the rearward movement of the nucleus
[5]
  effect on cell migration (expressing cells remaining at the wound edge): migration was inhibited
[3]; cell injected with DNA construct, treated with LPA
  effect on LPA-induced changes in the actin cytoskeleton: did not have a major effect

## N17Cdc42: dominant-negative N17Cdc42 protein
[2]; [8]
  effect on LPA-induced rearward nuclear movement: blocked

## wild type MRCK: wild type full length Rat MRCKa
[1]
  MTOC reorientation in starved cells without LPA: induced
[2]; expressed DNA, no other treatment
  position of the MTOC in starved cells without LPA: maintaining the MTOC at the cell centroid
[2]; no other treatment
  rearward nuclear movement in starved cells without LPA: induced
[4]
  pSer19 MLC immunofluorescence compared to noninjected cells: increased
[5]
  effect on cell migration (expressing cells remaining at the wound edge): no effect on cell migration

B1: hpak1(83-149): N-terminal autoregulatory domain of Pak1, which inhibits Pak1 activity (protein, UniProt Q13153 83-149, looked up, fragment)
chain: HTIHVGFDAVTGEFTGMPEQWARLLQTSNITKSEQKKNPQAVLDVLEFYNSKKTSNSQKYMSFTDKS
modifications: myc tag
[1]; [7]
  effect on LPA-induced MTOC reorientation: still reoriented their MTOC
[2]; [8]
  effect on LPA-induced rearward nuclear movement: moved their nuclei rearward

B2: MRCK-CPC: dominant negative truncated MRCKa, aa930-1492, lacks kinase domain and GTPase binding domain (protein, UniProt O54874 930-1492, looked up, fragment)
chain: QLIKDTEELRSEKGVEHRDSQHSFLAFLNTPTDALDQFERSPSCTPAGKGRRIADSAPLPVHTPTLRKKGCPASAGFPPKRKTHQFFVKSFTAPTKCHQCTSLMVGLIRQGCSCEVCGFSCHITCVNKAPTTCPVPPEQTKGPLGIDPQKGVGTAYEGHVRIPKPAGVKKGWQRALAVVCDFKLFLYDIAEGKASQPSSVISQVIDMRDEEFSVSSVLASDVIHASRKDIPCIFRVTASQLSAPSDKCSILMLADSETERSKWVGVLSELHKVLKKNKFRDRSVYVPKEAYDSTLPLIKTTQAAAIIDHERVALGNEEGLFVVHVTKDEIIRVGDNKKIHQIELIPSDQLVAVISGRNRHVRLFPMSALDGRETDFYKLAETKGCQTIAAGKVRHGALSCLCVAMKRQVLCYELFQSKTRHRKFKEIQVPCNVQWMAIFSEHLCVGFQSGFLRYPLNGEGSPCNMLHSNDHTLAFITHQPMDAICAVEISNKEYLLCFSSIGIYTDCQGRRSRQQELMWPANPSSCCYNAPYLSIYSENAVDIFDVNSMEWIQTLPLKKVRPL
modifications: Flag tag
[1]; [9]
  effect on MTOC reorientation induced by L61Cdc42: inhibited
[1]; [7]
  effect on LPA-induced MTOC reorientation: blocked MTOC reorientation
[2]; [9]
  effect on nuclear movement induced by L61Cdc42: inhibited
[2]; [8]
  effect on LPA-induced rearward nuclear movement: blocking the rearward movement of the nucleus
[4]
  pSer19 MLC immunofluorescence compared to noninjected cells: no effect

B3: Par6: full length mouse Par-6 in pFLAG CMV2 (protein, UniProt Q9Z101 1-346, looked up)
chain: MARPQRTPARSPDSIVEVKSKFDAEFRRFALPRTSVRGFQEFSRLLCVVHQIPGLDVLLGYTDAHGDLLPLTNDDSLHRALASGPPPLRLLVQKRAEGDSSGLAFASNSLQRRKKGLLLRPVAPLRTRPPLLISLPQDFRQVSSVIDVDLLPETHRRVRLHKHGSDRPLGFYIRDGMSVRVAPQGLERVPGIFISRLVRGGLAESTGLLAVSDEILEVNGIEVAGKTLDQVTDMMVANSHNLIVTVKPANQRNNVVRGASGRLTGPSSVGPGPTDPDSDDDSSDLVIENRHPPCSNGLSQGPLCWDLQPGCLLPGAGSSLPSLDSREQANSGWGNGMRGDVSGFSL
modifications: full-length Flag tag
notes: full length mouse Par-6 in pFLAG CMV2
[1]; [7]
  effect on LPA-induced MTOC reorientation: blocked
[2]; [8]
  effect on LPA-induced rearward nuclear movement: unaffected
[2]; microinjected protein, antibody or expressed DNA construct, LPA-treated (L61Cdc42 without LPA)
  position of the MTOC relative to the cell centroid: displacement of the MTOC from its position at the centroid

Source: patent US20070087985A1, “MRCK-related compositions and methods” (priority 2005, published 2007)
